{"source": "paper PMC9841593", "about": "(ACS Medicinal Chemistry Letters, 2022)", "test": "pH-metric titration of pKa"}
{"smiles": "O=C(O)c1[nH]c(Br)cc(=O)c1O", "note": "[Compound 2]", "values": [{"measurement": "Measured pKa", "setting": "phenolic proton, pH-metric titration", "result": "9.79 ± 0.01"}]}
{"smiles": "NC(=O)c1[nH]c(Br)cc(=O)c1O", "note": "[Compound 3]", "values": [{"measurement": "pKa", "result": "9.64 ± 0.02"}]}
{"smiles": "O=c1cc(Br)[nH]c(-c2nnn[nH]2)c1O", "note": "[Compound 4]", "values": [{"measurement": "pKa", "result": "> 12"}]}
{"smiles": "N/C(=N\\O)c1[nH]c(Br)cc(=O)c1O", "note": "[Compound 6]", "values": [{"measurement": "pKa", "result": "9.06 ± 0.02"}]}
